The values below come from patent US20220251569A1, “TREATMENT AND PREVENTION OF DISEASE MEDIATED BY WWP2” (National University of Singapore, priority 2019, published 2022).

One assay deals with T1, WWP2-C (Homo sapiens, UniProt O00308).
T1 construct: GST; made in house
The experiment in a line: Octet RED binding assay to WWP2-C. Conditions: compound at 250 μM, binding measured over 120 seconds, Octet RED96e. How it is done: (§1) The WWP2 isoforms WWP2-FL, WWP2-N and WWP2-C were expressed as a GST fusion protein in bacteria and purified using glutathione sepharose 4B resin (GE Healthcare) according to the manufacturer's instructions. Expression and purity of the expressed WWP2 proteins was analysed by Coomassie Blue staining of the gel after separation by SDS-PAGE and western blotting (WB).
(§2) Binding assays were performed using the Octet RED96e System (FortéBio Inc., Menlo Park, Calif.). WWP2-FL, WWP2-N and WWP2-C proteins were biotinylated using NHS-PEO4-biotin (Pierce). Super-streptavidin (SSA) biosensors (FortéBio Inc., Menlo Park, Calif.) were coated in a solution containing 1 μM of biotinylated protein for 4 hours at 25° C. A duplicate set of sensors were incubated in assay buffer (1× kinetics buffer of ForteBio Inc.) with 5% DMSO without protein, for use as a background binding control. Both sets of sensors were blocked with a solution of 10 ug/ml Biocytin for 5 minutes at 25° C. A negative control of 5% DMSO was also used.
(§3) Binding of samples containing the different compounds (at a concentration of 250 μM) to coated and uncoated reference sensors was measured over 120 seconds. Analysis of the data was performed using a double reference subtraction (sample and sensor references) in the FortéBio data analysis software. […]
Background: BLI is a label-free optical method that tracks binding on a fibre tip over time.

The target of a further assay is T2, WWP2-N (Homo sapiens, UniProt O00308).
T2 construct: GST; made in house
T2 sequence (O00308 1-335 limits assumed): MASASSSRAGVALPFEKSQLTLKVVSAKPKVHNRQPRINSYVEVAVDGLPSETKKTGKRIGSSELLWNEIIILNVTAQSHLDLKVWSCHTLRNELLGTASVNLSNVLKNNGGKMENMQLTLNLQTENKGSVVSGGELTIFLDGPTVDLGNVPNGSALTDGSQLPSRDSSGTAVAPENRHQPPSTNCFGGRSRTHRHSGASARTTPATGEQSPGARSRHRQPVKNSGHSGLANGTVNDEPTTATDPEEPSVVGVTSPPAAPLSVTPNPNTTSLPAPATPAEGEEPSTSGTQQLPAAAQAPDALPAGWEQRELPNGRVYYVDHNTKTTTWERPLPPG
The experiment in a line: Octet RED binding assay to WWP2-N. Conditions: compound at 250 μM, binding measured over 120 seconds, Octet RED96e. Here is the method:
as §1, §2, §3

In assay [1] the test system is primary renal fibroblasts. As to the kind of experiment: Cellular fibrosis assay (ACTA2 immunostaining) in TGFβ1-stimulated primary renal fibroblasts. It counts as cell-based, mice. To be noted: compound 0.3 mM for 1 hour, then TGFβ1 stimulation 72 hours; fluorescence microscopy. Here is the method: Primary renal fibroblasts were obtained from the renal cortex of mice. Minced renal cortex pieces (1-3 mm^3) were placed in 6 cm dishes with DMEM supplemented with 20% fetal bovine serum for less than 10 days to generate mice renal fibroblasts (P0), and passaged to P1 and P2 in DMEM supplemented with 10% fetal bovine serum for experiments. To mimic the in vivo activation of renal fibroblasts in fibrosis, cells were treated with human transforming growth factor-β1 (TGFβ1) (Sigma Aldrich, #T7039) at a concentration of 5 ng/μl for 72 hours.
To test the anti-fibrotic effect of candidate small-molecules, cells were treated with each compound (0.3 mM) for 1 hour, followed by stimulation with TGFβ1 before harvesting. After fixation with ice-cold acetone and blocking with 1% BSA for 30 min at RT, the slides were incubated with primary anti-smooth muscle a actin (ACTA2) antibody (ACTA2 is a widely recognised myofibroblast marker, indicating fibroblast activation) (Sigma-Aldrich, #A5228, 1:100) overnight at 4° C. Following washing steps, slides were incubated with Bovine Anti-Mouse IgG-CFL 488 secondary antibody (Santacruz Biotechnology, #sc-362256, 1:100) for 2 hours at RT. VectaShield Mounting Medium (Vector laboratories, #H-1200) with DAPI was used to stain the nuclei and the slides were covered by coverslip. Slides were imaged on Leica fluorescence microscope (Leica).

T1 sequence (O00308 440-870 limits assumed): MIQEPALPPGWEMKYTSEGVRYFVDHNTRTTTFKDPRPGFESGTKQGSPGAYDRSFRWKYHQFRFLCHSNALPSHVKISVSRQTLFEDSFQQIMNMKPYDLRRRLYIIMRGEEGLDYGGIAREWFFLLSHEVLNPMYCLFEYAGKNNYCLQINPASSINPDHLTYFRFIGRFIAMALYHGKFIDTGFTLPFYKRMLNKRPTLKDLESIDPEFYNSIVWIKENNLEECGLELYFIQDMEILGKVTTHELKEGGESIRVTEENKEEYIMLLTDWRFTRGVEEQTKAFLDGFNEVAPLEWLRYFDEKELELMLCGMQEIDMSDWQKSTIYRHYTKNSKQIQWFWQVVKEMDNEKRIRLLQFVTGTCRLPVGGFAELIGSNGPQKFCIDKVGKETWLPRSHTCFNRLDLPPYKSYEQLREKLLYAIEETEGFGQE

With `COc1ccc(-n2c(=O)c3c4c(sc3n(CC(=O)NCc3ccco3)c2=O)CCC4)c(OC)c1` [EP1, 2-[11-(2,4-dimethoxyphenyl)-10,12-dioxo-7-thia-9,11-diazatricyclo[6.4.0.02.6]dodeca-1(8),2(6)-dien-9-yl]-N-(furan-2-ylmethyl)acetamide], the “Binding level (nm) to WWP2 C isoform” value at WWP2-C stood at 0.0061 nm. In addition, on WWP2-N, the “Binding level (nm) to WWP2 N isoform” value is given as 0.1253 nm. Moreover, in assay [1], the “Anti-fibrotic response in renal fibroblasts (ACTA2 expression)” value was “reduced expression of ACTA2”.
